{
  "source": "paper PMC9322052",
  "about": "“Synthesis and Biological Activity Screening of Newly Synthesized Trimethoxyphenyl-Based Analogues as Potential Anticancer Agents” (Molecules, 2022)",
  "system": "normal liver cell line HL-7702",
  "experiment": "MTT cytotoxicity assay, normal liver cells",
  "format": "cell-based",
  "conditions": "Homo sapiens, L02, 24 h treatment, mean ± SE",
  "description": "All the newly synthesized analogs were evaluated for their in vitro cytotoxicity against the hepatocellular carcinoma HepG2 cell line. Podo was utilized as a reference control in the current study. […] The N-phenyl triazinone derivative 9 was further investigated for its cytotoxic effects against normal liver cell line HL-7702.\nMTT colorimetric assay was carried out to investigate the impact of the newly synthesized compounds 2–11 on hepatocellular carcinoma (HepG2) and normal liver cell line (HL-7702) cell lines. See Section 3.3.1 in Supplementary Material.\n3.3.1. Cytotoxic activity evaluation\nTo measure the cytotoxic activity of the synthesized derivatives 2a-11 in hepatocel-lular carcinoma (HepG2) cell line (ATCC Cat No. HB-8065) as well as normal human liver cell line HL-7702 (ATCC Cat. No. 77402), cell viability assay was assessed using MTT assay method. Cells at density of 1 x 104 were seeded in a 96-well plate at 37 °C for 24 h under 5% CO2. […] The color inten-sity of the formazan product, which represents the growth condition of the cells, is quan-tified by using an ELISA plate reader (EXL 800, USA) at 570 nm absorbance. […]\nCompounds 9, 10 and 11 were evaluated for their tubulin inhibitory activity levels according to the manufacturer’s instructions using # abcam Human Beta-tubulin simplestep […]\n3.3.5. […] The samples were immediately analyzed using cell […]",
  "data": [
    {"smiles": "COc1ccc(C2=N/C(=C\\c3cc(OC)c(OC)c(OC)c3)C(=O)NN2c2ccccc2)cc1OC", "note": "[Compound 9, (Z)-3-(3,4-Dimethoxyphenyl)-2-Phenyl-5-(3,4,5-Trimethoxybenzylidene)-1,2-Dihydro-1,2,4-Triazin-6(5H)-one]", "values": [
      {"measurement": "IC50", "value": "29.1 ± 2.03", "unit": "µM"}
    ]}
  ]
}
